Here are results for 48 molecules from PMC12036557, “Functional Imaging of CYP3A4 at Multiple Dimensions Using an AI‐Driven High Performance Fluorogenic Substrate” (Small (Weinheim an Der Bergstrasse, Germany), 2025).

T1 sequence (P08684 whole entry): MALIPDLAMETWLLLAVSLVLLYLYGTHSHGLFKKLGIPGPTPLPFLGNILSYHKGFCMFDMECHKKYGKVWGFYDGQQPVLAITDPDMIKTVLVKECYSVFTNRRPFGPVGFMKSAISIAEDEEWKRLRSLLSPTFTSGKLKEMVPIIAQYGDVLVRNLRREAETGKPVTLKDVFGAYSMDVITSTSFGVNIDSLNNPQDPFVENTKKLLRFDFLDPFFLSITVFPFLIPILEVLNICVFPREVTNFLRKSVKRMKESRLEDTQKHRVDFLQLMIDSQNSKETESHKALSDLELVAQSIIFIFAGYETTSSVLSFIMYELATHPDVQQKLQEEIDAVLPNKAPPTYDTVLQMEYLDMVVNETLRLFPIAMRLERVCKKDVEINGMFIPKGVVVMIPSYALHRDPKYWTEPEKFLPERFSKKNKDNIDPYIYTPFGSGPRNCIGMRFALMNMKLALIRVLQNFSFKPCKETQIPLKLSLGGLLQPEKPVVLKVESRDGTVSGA

The subject of the first data set is MCF‐7, Hep3B, and U87 cells. Kind of data set: Cytotoxicity assays. In kind it is cell-based.
Details: not given
In the case of `O=C1c2cccc3c(O)ccc(c23)C(=O)N1Cc1cscn1` [4-HNFa, 4-Hydroxyl-N-(4-thiazolemethanamino)-naphtahlimide], the cytotoxicity entry is reported as “weak cytotoxicity”.

System in another data set: not listed separately
Kind of data set: Metabolic stability assay of 4-HNFa in phase II metabolizing system. In kind it is in vitro ADME. As to conditions: human, pH 7.4; HLMs in the presence of UDPGA; read-out: metabolic half-life t1/2.
As to `O=C1c2cccc3c(O)ccc(c23)C(=O)N1Cc1cscn1` [4-HNFa, 4-Hydroxyl-N-(4-thiazolemethanamino)-naphtahlimide], the half-life at 20 μM came out at 58.6 min. With `O=c1ccc2ccc(O)cc2o1` [7‐hydroxycoumarin, reference compound], the half-life at 20 μM came out at 16.9 min.

A further data set addresses T1, CYP3A4 (Homo sapiens, UniProt P08684). Kind of data set: in vitro. As to conditions: pH 7.4.
As for `CCN1C[C@]2(COC)[C@H](O)C[C@H](OC)[C@@]34[C@@H]5C[C@@]6(O)[C@H](OC(=O)c7ccccc7)[C@@H]5[C@@](OC(C)=O)([C@@H]([C@H](OC)[C@H]23)[C@@H]14)[C@@H](O)[C@@H]6OC` [Aconitine], the activity at 30 min, 1 µM is 94.8%. As to `O=C1c2ccccc2C(=O)c2ccccc21` [Anthraquinone], the activity at 30 min, 1 µM is 94.3%.

With `CC[C@@]1(O)C(=O)OCc2c1cc1n(c2=O)Cc2cc3ccccc3nc2-1` [Camptothecin], the activity at 30 min, 1 µM was 93.8%. Turning to `COc1ccc2c(c[n+](C)c3c4cc5c(cc4ccc23)OCO5)c1OC` [Chelerythrine], the activity at 1 µM worked out at 89.6%. In the case of `c1c2c(cc3c1OCO3)-c1cc3ccc4c(c3c[n+]1CC2)OCO4` [Coptisine], the activity at 1 µM worked out at 77.9%.

In the case of `O=c1cccc2n1C[C@@H]1CNC[C@H]2C1` [Cytisine], the activity at 1 µM was 94.1%. The same measure, in the same setting: in the case of `COc1cc2c(cc1OC)C(=O)/C(=C/c1ccccc1)C2` [D1, (E)-2-benzylidene-5,6-dimethoxy-2,3-dihydro-1H-inden-1-one] it was 88%.

Turning to `O=c1c(-c2ccc(O)cc2)coc2cc(O)ccc12` [Daidzein], the activity at 30 min, 1 µM was determined as 97.4%. For `COc1ccc2c(c1)[nH]c1c(C)nccc12` [Harmine], the activity at 1 µM was found to be 101%. Take `COc1ccc([C@@H]2CC(=O)c3c(O)cc(O)cc3O2)cc1O` [Hesperetin]: the activity at 30 min, 1 µM is 96.8%. With `CN1[C@@H]2CC[C@H]1C[C@@H](OC(=O)[C@H](CO)c1ccccc1)C2` [Hyoscyamine], the activity at 1 µM came to 98%. On the same count and under the same terms, the value for `COC[C@@]12CC[C@H](OC)[C@]34C(C([C@H](OC)[C@H]13)[C@]1(OC(C)=O)[C@H]3[C@@H](OC(=O)c5ccccc5)[C@](O)(C[C@H]34)[C@@H](OC)[C@@H]1O)N(C)C2` [Hypaconitine] was 94.9%. As for `COc1ccc(-c2oc3c(CC=C(C)C)c(O)cc(O)c3c(=O)c2O)cc1` [Icaritin], the activity at 30 min, 1 µM is 90.1%. Take `O[C@H]1[C@H]2c3cc4c(cc3CN3CCC(=C[C@@H]1O)[C@H]23)OCO4` [Lycorine]: the activity at 1 µM turned out to be 92.1%. Take `C=CCc1ccc(O)c(-c2cc(CC=C)ccc2O)c1` [Magnolol]: the activity at 1 µM is 106%. `COc1ccc(-c2cc(=O)c3c(OC)c(OC)c(OC)c(OC)c3o2)cc1OC` [Nobiletin]: the activity at 30 min, 1 µM was determined as 102%. Consider `CC1(C)CC[C@]2(C(=O)O)CC[C@]3(C)C(=CC[C@@H]4[C@@]5(C)CC[C@H](O)C(C)(C)[C@@H]5CC[C@]43C)[C@@H]2C1` [Oleanolic acid], for which the activity at 1 µM was 70.2%. In the case of `O=C1C=CC[C@@H]2[C@H]3CCC[N+]4([O-])CCC[C@@H](CN12)[C@@H]34` (some centres unmarked) [Oxysophocarpine], the activity at 1 µM turned out to be 96.1%. As for `COc1ccc(-c2cc(=O)c3c(O)c(OC)c(O)cc3o2)cc1` [Pectolinarigenin], the activity at 30 min, 1 µM was determined as 98%. Regarding `CN1[C@@H]2C[C@@H](OC(=O)[C@H](CO)c3ccccc3)C[C@H]1[C@@H]1O[C@@H]12` [Scopolamine], the activity at 1 µM amounted to 98.8%. In the case of `COc1cc(C2Oc3cc([C@H]4Oc5cc(O)cc(O)c5C(=O)[C@@H]4O)ccc3OC2CO)ccc1O` (some centres unmarked) [Silybin], the activity at 30 min, 1 µM was 89%. For `C=C1[C@H]2C[C@@]3([C@@H]1O)[C@@H](CC2=O)[C@]12[C@@H]4C[C@H]3[C@H]1N(CC)C[C@]4(C)CC[C@@H]2O` [Songorine], the activity at 1 µM is 104%. As for `O=C1C=CC[C@@H]2[C@H]3CCCN4CCC[C@@H](CN12)[C@@H]34` [Sophocarpine], the activity at 30 min, 1 µM came out at 94.1%. On the same count and under the same terms, the value for `O=C1C[C@@H]2OCC=C3CN4CC[C@]56c7ccccc7N1[C@H]5[C@H]2[C@H]3C[C@H]46` [Strychnine] was 96.3%. Still for that read-out and setting: in the case of `COc1ccc2cc1Oc1ccc(cc1)C[C@H]1c3cc(c(OC)cc3CCN1C)Oc1c(OC)c(OC)cc3c1[C@H](C2)N(C)CC3` [Tetrandrine] it was 95.2%.

In a further data set the target is T1, CYP3A4.
Test: not given
As to conditions: cited from earlier work. On the set-up: expressed in transfected cells; host or cells: CHO-3A4 stably transfected cell line.
For `CCN1C(=O)c2cccc3cccc(c23)C1=O` [NEN, N‐ethyl‐1,8‐naphthalimide], the “cell‐membrane permeability” value is listed as “very poor cell‐membrane permeability”.

Staying with this data set, now noted: previously reported fluorescent substrates; 9 of the supplement; cited from earlier work.
For the molecule `O=c1ccc2nc3ccc(OCc4ccccc4)cc3oc-2c1` [BzRes, 7-benzyloxyresorufin], the “cell-membrane permeability (Shortages)” value is “low cell-membrane permeability; unavailable in vivo”. `CCN1C(=O)c2cccc3cccc(c23)C1=O` [NEN, N‐ethyl‐1,8‐naphthalimide]: the “cell-membrane permeability (Shortages)” value is on record as “low cell-membrane permeability; unavailable in vivo”.

Staying with this data set, now noted: previously reported fluorescent substrates; ref 7-10 of the supplement; cited from earlier work.
For the molecule `O=c1cc(C(F)(F)F)c2ccc(OCc3ccccc3)cc2o1` [BFC, 7-benzyloxy-4-trifluoromethylcoumarin], the Specificity entry is reported as “CYP3A4 non-specific substrate”. `O=c1ccc2nc3ccc(OCc4ccccc4)cc3oc-2c1` [BzRes, 7-benzyloxyresorufin]: the Specificity result is reported as “CYP3A4 non-specific substrate”.

Turning to `O=C(OCc1ccccc1)c1ccccc1-c1c2ccc(=O)cc-2oc2cc(OCc3ccccc3)ccc12` [DBF, dibenzylfluorescein], the Specificity result was “CYP2C8, CYP3A4, CYP3A5”. On to `CCN1C(=O)c2cccc3cccc(c23)C1=O` [NEN, N‐ethyl‐1,8‐naphthalimide], for which the Specificity entry was “CYP3A4 specific substrate”.

In the next data set the target is T2, hCYP3A4 in HLMs (Homo sapiens, UniProt P08684).
T2 sequence (P08684 whole entry): as above
Test: not given
As to conditions: 1 µM.
On to `COc1c(/C=C/C(=O)c2ccc(O)cc2)ccc(O)c1CC=C(C)C` [Licochalcone C], for which the Residual activity came to 59.04%. Consider Sanggenone C, for which the Residual activity worked out at 92.64%.

A further data set deals with T2, hCYP3A4 in HLMs. Kind of data set: NFa-based screening and characterizing of hCYP3A4 inhibitors in HLMs. As to conditions: inhibitor 1 μM, HLMs, NFa as fluorogenic substrate.
Molecule `CC(C)=CCCC(C)(O)[C@H]1CC[C@]2(C)[C@@H]1[C@H](O)C[C@@H]1[C@@]3(C)CC[C@H](O)C(C)(C)[C@@H]3CC[C@]12C` (stereo in doubt) [Protopanaxadiol] showed a Residual activity of 69.66%. Same read-out and setting: in the case of `COc1ccc(-c2oc3c(CC=C(C)C)c(O)cc(O)c3c(=O)c2O)cc1` [Anhydroicaritin] it was 87.82%; in that of `O=C1c2c(O)cc(O)cc2O[C@H](c2ccc(O)cc2)[C@H]1O` [Aromadendrin], 91.70%. Same read-out and setting: the value for `CC(C)=CCc1cc(C(=O)/C=C/c2ccc(O)cc2)c(O)cc1O` [Bavachalcone] was 90.43%; that for `COc1cc2c(cc1O)[C@@H](Cc1ccc(O)c(Oc3ccc(C[C@@H]4c5cc(OC)c(OC)cc5CCN4C)cc3)c1)N(C)CC2` [Daurisoline] was 91.85%; that for `COc1cc2c(cc1OC)-c1cc3ccc4c(c3c[n+]1CC2)OCO4` [Epiberberine] was 89.82%. On the same count and under the same terms, the value for `CCN1C[C@]2(OC(=O)c3ccccc3NC(C)=O)CC[C@H](OC)[C@@]34[C@@H]2C[C@@H]([C@@H]13)[C@@]1(O)C[C@H](OC)[C@H]2C[C@@H]4[C@]1(O)[C@H]2OC` [Lappaconitine] was 94.46%. For the molecule `C=CC(C)(C)c1cc(/C=C/C(=O)c2ccc(O)cc2)c(OC)cc1O` [Licochalcone A], the Residual activity is listed as 39.20%. Regarding `O=C1C[C@@H](c2ccc(O)cc2)Oc2cc(O)ccc21` [Liquiritigenin], the Residual activity stood at 90.60%. Same read-out and setting: in the case of `COc1ccc(-c2cc(=O)c3c(O)c(OC)c(O)c(OC)c3o2)cc1` [Lysionotin] it was 96.88%; in that of `COc1cc2c(=O)n(C)c3c4cc5c(cc4ccc3c2cc1OC)OCO5` [Oxynitidine], 89.98%. On the same count and under the same terms, in the case of `CC(C)=CCC[C@](C)(O)[C@H]1CC[C@]2(C)[C@@H]1[C@H](O)C[C@@H]1[C@@]3(C)CC[C@H](O)C(C)(C)[C@@H]3[C@@H](O)C[C@]12C` [Protopanaxatriol] it was 43.85%.

The target of a further data set is T1, CYP3A4. The description is as above. As to conditions: human, human liver microsomes, pH 7.4, probe NFa (4-hydroxylation to 4-HNFa). A general note: Microsomes from liver hold many membrane-bound enzymes, among them those of drug oxidation.
For the molecule `COc1cc(O)c(CC=C(C)C)c(O)c1C(=O)/C=C/c1ccc(O)cc1` [Xanthohumol], the activity at 30 min, 1 µM was 59.9%.

Another data set has as its target T1, CYP3A4. Kind of data set: Enzyme kinetic analyses of NFs 4-hydroxylation by hCYP3A4. Format: biochemical.
Details: not given
Also on record: purchased Cypex.
For `Cc1nc(CN2C(=O)c3cccc4cccc(c34)C2=O)cs1` [NFb, N-(2-Methyl-4-thiazolemethanamino)-naphtahlimide], the “CL int (V max/K m)” value amounted to 558 µL min^−1/nmol hCYP3A4 and the K m stood at 7.51 ± 0.49 µM. On the same counts, the results for `CC(C)c1nc(CN2C(=O)c3cccc4cccc(c34)C2=O)cs1` [NFd, N-(2-Isopropyl-4-thiazolemethanamino)-naphtahlimide] are 504 µL min^−1/nmol hCYP3A4 and 4.17 ± 0.21 µM.

The subject of the next data set is panel of human recombinant cytochrome P450 enzymes. Kind of data set: P450 reaction phenotyping analysis. In kind it is biochemical. As to conditions: each recombinant CYP 2.5 nM, 37 °C, 30 min.
On to `Cc1nc(CN2C(=O)c3cccc4cccc(c34)C2=O)cs1` [NFb, N-(2-Methyl-4-thiazolemethanamino)-naphtahlimide], for which the “isoform specificity as P450 substrate” value is reported as “highly specific substrates for hCYP3A4”.

In the case of `CC(C)c1nc(CN2C(=O)c3cccc4cccc(c34)C2=O)cs1` [NFd, N-(2-Isopropyl-4-thiazolemethanamino)-naphtahlimide], the “isoform specificity as P450 substrate” value is listed as “highly specific substrates for hCYP3A4”.

System in another data set: not listed separately
Kind of data set: Optical properties, photostability and pH stability of NFa and 4-HNFa. Also on record: maximum UV absorption: unit not given here.
Details: not given
Format: physicochemical.
`O=C1c2cccc3c(O)ccc(c23)C(=O)N1Cc1cscn1` [4-HNFa, 4-Hydroxyl-N-(4-thiazolemethanamino)-naphtahlimide]: the “Fluorescence quantum yield Φf” value came out at 0.129, the “Molar extinction coefficient ε” value worked out at 25300 M⁻¹ cm⁻¹, the “maximum UV absorption” value is listed as 450 and the maximum fluorogenic emission was 555 nm.

Still in this data set, the particulars now being: 2 μM.
For the molecule `O=C1c2cccc3c(O)ccc(c23)C(=O)N1Cc1cscn1` [4-HNFa, 4-Hydroxyl-N-(4-thiazolemethanamino)-naphtahlimide], the “pH range of stable fluorescence signals ≈555 nM” value is 6.5–12.0.

The data set is the same for the next values; noted with them: continuous illumination at 450 nm.
Consider `O=C1c2cccc3c(O)ccc(c23)C(=O)N1Cc1cscn1` [4-HNFa, 4-Hydroxyl-N-(4-thiazolemethanamino)-naphtahlimide], for which the photostability result was “good photostability”.
